Experiment [1] addresses T1, Mitogen-activated protein kinase; ERK1/ERK2 (Homo sapiens) (UniProt P27361+P28482). Kind of experiment: Inhibition of ERK1/2 phosphorylation at Thr202/Tyr204 residues in human MIAPaCa2 cells grown under 3D anchorage-independent soft-agar conditions at 50 nM incubated for 2 to 8 hrs by Western blotting analysis relative to control. The format is cell-based. On the technique in general: In western blotting, separated proteins are transferred to a membrane and probed.

For experiment [2], the system named is MIA PaCa-2. Kind of experiment: Antitumor activity against human MIAPaCa2 cells grown under 3D anchorage-independent soft-agar conditions at xenografted in BomTacNMRI-Foxn1 nu mouse assessed as inhibition of tumor regression at 0.125 mg/kg, po BID relative to control. Type of experiment: functional, organism-based. (In general: Xenograft models place foreign cells or tissue in a host animal.)

For experiment [3], the target named is T1, Mitogen-activated protein kinase; ERK1/ERK2 (Homo sapiens). Put plainly: Inhibition of ERK1/2 phosphorylation in human MIAPaCa2 cells grown under 3D anchorage-independent soft-agar conditions at assessed as increase in MEK1/2 phosphorylation at Ser 217/221 residues at 25 nM incubated for 2 to 8 hrs by Western blotting analysis. The format is cell-based.

Experiment [4] deals with MIA PaCa-2. Put plainly: Antitumor activity against human MIAPaCa2 cells grown under 3D anchorage-independent soft-agar conditions at xenografted in BomTacNMRI-Foxn1 nu mouse assessed as inhibition of tumor regression at 0.05 mg/kg, po BID relative to control. Type of experiment: functional, organism-based.
The next experiment relates to NCI-H358. Kind of experiment: Induction of apoptosis in human NCI-H358 cells grown under 3D anchorage-independent soft-agar conditions at grown under 3D anchorage-independent soft-agar conditions assessed as induction of PARP cleavage at 125 nM incubated for 48 hrs by mesoscale assay. Type of experiment: functional, cell-based.
In experiment [5] the test system is NCI-H2122. Kind of experiment: Growth inhibition of human NCI-H2122 cells grown under 3D anchorage-independent soft-agar conditions at 3330 nM incubated for 14 days by alamar blue dye based assay relative to control. The format is functional. The conditions noted are these: NCI-H2122, 336 h, read-out: GI. In general terms: Alamar Blue is a resazurin reagent that responds to reducing activity.

The subject of experiment [6] is NCI-H2122. Kind of experiment: Growth inhibition of human NCI-H2122 cells grown under 3D anchorage-independent soft-agar conditions at 1110 nM incubated for 14 days by alamar blue dye based assay relative to control. Type of experiment: functional. The conditions noted are these: NCI-H2122, 336 h, read-out: GI.
For experiment [7], the system named is NCI-H2122. Kind of experiment: Growth inhibition of human NCI-H2122 cells grown under 3D anchorage-independent soft-agar conditions at 123 nM incubated for 14 days by alamar blue dye based assay relative to control. The format is functional. The conditions noted are these: NCI-H2122, 336 h, read-out: GI.
Experiment [8] relates to NCI-H2122. Kind of experiment: Growth inhibition of human NCI-H2122 cells grown under 3D anchorage-independent soft-agar conditions at 164 nM incubated for 14 days by alamar blue dye based assay relative to control. The format is functional. The conditions noted are these: NCI-H2122, 336 h, read-out: GI.
The subject of experiment [9] is NCI-H2122. Put plainly: Growth inhibition of human NCI-H2122 cells grown under 3D anchorage-independent soft-agar conditions at 370 nM incubated for 14 days by alamar blue dye based assay relative to control. The format is functional. To be noted: NCI-H2122, 336 h, read-out: GI.
Experiment [10] deals with PC-9. Kind of experiment: Growth inhibition of human PC9 cells grown under 3D anchorage-independent soft-agar conditions at 1.85 nM incubated for 14 days by alamar blue dye based assay relative to control. The format is functional. To be noted: PC-9, 336 h, read-out: GI.
The test system of experiment [11] is PC-9. Put plainly: Growth inhibition of human PC9 cells grown under 3D anchorage-independent soft-agar conditions at 5.56 nM incubated for 14 days by alamar blue dye based assay relative to control. The conditions noted are these: PC-9, 336 h, read-out: GI. The format is functional.
Experiment [12] relates to PC-9. Put plainly: Growth inhibition of human PC9 cells grown under 3D anchorage-independent soft-agar conditions at 50 nM incubated for 14 days by alamar blue dye based assay relative to control. The format is functional. The conditions noted are these: PC-9, 336 h, read-out: GI.
In experiment [13] the test system is PC-9. Put plainly: Growth inhibition of human PC9 cells grown under 3D anchorage-independent soft-agar conditions at 0.617 nM incubated for 14 days by alamar blue dye based assay relative to control. The conditions noted are these: PC-9, 336 h, read-out: GI. The format is functional.
Experiment [14] concerns PC-9. Put plainly: Growth inhibition of human PC9 cells grown under 3D anchorage-independent soft-agar conditions at 16.7 nM incubated for 14 days by alamar blue dye based assay relative to control. Type of experiment: functional. To be noted: PC-9, 336 h, read-out: GI.

What is called inhibition is the drop in the measured response relative to a control, in per cent.

The structures appear in SMILES notation. The source made the active and inactive calls. The rule behind the calls is not given here.

T1 sequence (P27361 whole entry, looked up): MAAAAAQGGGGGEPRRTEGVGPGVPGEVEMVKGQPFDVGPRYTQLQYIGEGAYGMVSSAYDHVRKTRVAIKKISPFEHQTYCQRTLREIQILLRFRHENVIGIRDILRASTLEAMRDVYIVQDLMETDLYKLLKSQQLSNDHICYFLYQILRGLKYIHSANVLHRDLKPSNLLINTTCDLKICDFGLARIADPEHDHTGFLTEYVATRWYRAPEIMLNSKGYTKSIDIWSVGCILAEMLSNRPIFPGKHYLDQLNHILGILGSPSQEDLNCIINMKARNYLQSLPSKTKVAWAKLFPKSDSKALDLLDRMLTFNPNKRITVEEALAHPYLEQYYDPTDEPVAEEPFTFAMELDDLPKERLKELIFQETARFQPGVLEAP
T1 sequence (P28482 whole entry, looked up): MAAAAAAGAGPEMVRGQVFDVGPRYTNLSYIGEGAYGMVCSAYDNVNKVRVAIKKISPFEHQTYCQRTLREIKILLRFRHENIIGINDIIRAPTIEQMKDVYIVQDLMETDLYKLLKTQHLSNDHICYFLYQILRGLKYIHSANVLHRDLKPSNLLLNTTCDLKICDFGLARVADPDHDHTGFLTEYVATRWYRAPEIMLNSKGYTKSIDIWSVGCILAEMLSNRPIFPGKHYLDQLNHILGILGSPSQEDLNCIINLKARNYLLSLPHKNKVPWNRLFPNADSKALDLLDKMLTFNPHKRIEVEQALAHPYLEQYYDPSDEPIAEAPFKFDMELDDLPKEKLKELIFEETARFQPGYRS

On to `CC(=O)Nc1cccc(-n2c(=O)n(C3CC3)c(=O)c3c(Nc4ccc(I)cc4F)n(C)c(=O)c(C)c32)c1`, for which, in experiment [1], the inhibition was in the range of 65 to 75%. Moreover, the inhibition entry in the experiment on MIA PaCa-2 [2] and in the experiment with MIA PaCa-2 [4] was “inactive” in each case. For the same compound, the inhibition result in experiment [3] is “Active”.
For `CN(C)C/C=C/C(=O)Nc1cc2c(Nc3ccc(F)c(Cl)c3)ncnc2cc1O[C@H]1CCOC1`, in the experiment with NCI-H358, the result was Active.
As to `CCN1CCN(Cc2ccc(Nc3ncc(F)c(-c4cc(F)c5nc(C)n(C(C)C)c5c4)n3)nc2)CC1` [ABEMACICLIB], the inhibition of growth at 3.33 µM in the experiment with NCI-H2122 [5] turned out to be 81%. Besides, the inhibition of growth at 1.11 µM with NCI-H2122 [6] worked out at 91%. Also, in the experiment on NCI-H2122 [7], the inhibition of growth at 0.123 µM is 10%. In the experiment on NCI-H2122 [8], the inhibition of growth at 0.164 µM was found to be 103%. Also, the inhibition of growth at 0.37 µM in the experiment on NCI-H2122 [9] is 73%.
As for `C#Cc1cccc(Nc2ncnc3cc(OCCOC)c(OCCOC)cc23)c1` [ERLOTINIB], the inhibition of growth at 0.00185 µM in the experiment with PC-9 [10] was found to be 12%. The inhibition of growth at 0.00556 µM with PC-9 [11] is 49%. Also, the inhibition of growth at 0.05 µM in the experiment on PC-9 [12] is 199%. Moreover, in the experiment on PC-9 [13], the inhibition of growth at 0.000617 µM was 0%. Also, the inhibition of growth at 0.0167 µM in the experiment with PC-9 [14] came out at 147%.
